Results as given in PMC7862291, “Full-length in meso structure and mechanism of rat kynurenine 3-monooxygenase inhibition” (Communications Biology, 2021).
Several values for one entry are separate records, joined by “and”; a condition that tells them apart may be missing. Equal entries are not always repeated. Where two headings read alike, the source gives them in different places.

Tests used:
[1] = Pharmacokinetic (brain penetration) study in rats; type: in vivo; settings: Sprague-Dawley Crl:CD(SD), rat, male SD rats, 10 mg/kg ip, 1 h after a single administration
Protocol: Brain penetration studies were conducted in non-fasted male SD rats [Sprague-Dawley rats Crl:CD(SD), 8 weeks of age]. Compound 1 was intraperitoneally (ip) administered at 10 mg/kg in a solution of saline containing 10% dimethylformamide, 10% propylene glycol, and 4% 1 normality (N) sodium hydrate. […] Blood and brain were collected at 1 h after a single administration. The test compound in plasma samples or brain samples was extracted by deproteination with acetonitrile, and then analysed using LC-MS/MS.

[2] = target: T1, HEK293 cells stably expressing rat KMO (Rattus norvegicus, UniProt O88867); test: Cell-based rat KMO inhibition assay (LC/MS of 3-hydroxykynurenine); settings: duplicates
T1 construct: expressed in transfected cells
Protocol: (§1) HEK293 cells stably expressing human or rat KMO were maintained in DMEM containing 10% fetal bovine serum, 50 units/mL penicillin, 50 μg/mL streptomycin and 0.2 mg⁄mL zeocine. […] After 2 overnights, the medium was replaced with 10 μL/well of assay buffer (1 × HBSS containing 20 mM HEPES). Ten microliters per well of the diluted test compounds (final, 0–30 μM, 0.3% DMSO) were added to the respective wells. After ~30 min of pre-incubation at 37 °C, reactions were started by adding 20 μL of substrate solution containing 0.2 mM kynurenine. Reactions were run for 2 h at 37 °C, the assay buffer was discarded and the plate was immediately frozen and stored at −30 °C until LC/MS analysis.
(§2) An 80 µL volume of cold acetonitrile with 2% formic acid was added to the cell pellet in a 384-well plate and centrifuged at 3000 rpm for 10 min at 4 °C. A 40 µL volume of the supernatant was transferred to a new 384-well plate and evaporated to dryness under nitrogen gas at 45 °C. The residue was reconstituted in 100 µL of acetonitrile/water (10:90, v/v) with 0.1% formic acid, and 1 µL was injected into the LC-MS/MS system.
(§3) LC/MS/MS was performed on a Shimadzu UFLC Nexera X2 (Shimadzu Corporation, Japan) and an QTRAP® 5500 LC-MS/MS System (SCIEX, Framingham, USA). Chromatographic separation was performed using an Allure PFP Propyl analytical column (5 µm, 2.1 × 100 mm) maintained at 50 °C. The autosampler temperature was set at 15 °C. The mobile phase consisted of formic acid/water/acetonitrile/methanol (0.5/500/250/250, v/v/v/v) and the flow rate was set at 0.3 mL/min. 3-hydroxykynurenine was eluted from the LC column at a retention time of 1.2 min. The MS system was operated using electrospray ionization (ESI) in positive mode. The optimum conditions were curtain gas, 20 psi; ion spray voltage, 5500 V; heated nebulizer temperature (TEM), 700 °C; nebulizing gas (GS1), 70 psi; and heater gas (GS2), 70 psi. […] Analyst® software (SCIEX, Framingham, USA) was used for system control and MultiQuant™ Software (SCIEX, Framingham, USA) was used for data analysis.
(§4) Compound assays were analysed and plotted on graphs using Prism (GraphPad Software Inc. San Diego, CA, USA).

[3] = tested on: KMO; design: method as in ref 20 Winkler et al; settings: 100 kynurenine, CHO cells, LC/MS; ref 20 Winkler et al; read-out: cellular IC50 (Winkler et al); cited from earlier work
[4] = target: T2, hKMO (Homo sapiens, UniProt O15229); test: Human KMO enzyme (cell-free) assay, NADPH consumption by absorbance; type: biochemical; settings: for inhibition rate, Hs-KMO cell-free assay (Figure 1A source data): duplicates
T2 construct: purchased Origene
Protocol: (§5) Human KMO was purchased from Origene and used to assay compounds. Full-length Rat-KMO purified for crystallisation was used to assay compounds. Full-length Rat-KMO-expressing membranes were used for mutant assays (Fig. 4b) only. […] Images were taken using Odyssey CLX (LI-COR Biosciences) and quantified using ImageStudio2.0 (LI-COR Biosciences) software.
(§6) Test compounds were dissolved in DMSO and diluted with assay buffer containing 50 mM HEPES, 2 mM MgCl2, 0.5 mM EGTA, 1 mM DTT, 0.05% Tween20 and 0.005% of antiform SI (pH = about 7.9) to prepare a 4% DMSO solution. […] After 5 min of pre-incubation, reactions were started by adding 10 μL of substrate solution containing 2.4 mM kynurenine and 0.6 mM NADPH. Reactions were run for 90 min at 30 °C, then terminated by adding 5 μL of stop buffer (40 mM maleimide, 2 mM WST-9 and 0.1 mM 1-methoky PMS in water). […] Liposomal assays were performed in the same manner except that the composition of the assay buffer was changed (phosphate-buffered saline, 2 mM MgCl2, 1 mM DTT, 0.05% Tween 20).
as §4

[5] = target: T3, Rat KMO (Rattus norvegicus, UniProt O88867); test: Rat KMO enzyme (cell-free) assay, NADPH consumption by absorbance; type: biochemical; settings: duplicates
T3 construct: The GST-tagged full-length KMO (1-478) baculovirus vector contained a thrombin cleavage site; GST (thrombin cleavage site between GST and KMO) (N, cleaved yes); made in house; host or cells: Spodoptera frugiperda (Sf9), baculovirus
Protocol: as §5, §6, §4

[6] = tested on: KMO; design: method as in ref 27 Jacobs et al; settings: 600 μM kynurenine, recombinant protein, fluorescence; ref 27 Jacobs et al; cited from earlier work
[7] = target: T4, HEK293 cells stably expressing human KMO (Homo sapiens, UniProt O15229); test: Cell-based human KMO inhibition assay (LC/MS of 3-hydroxykynurenine); settings: for inhibition rate, Hs-KMO cellular assay (Figure 1C source data): duplicates
T4 construct: expressed in transfected cells
Protocol: as §1, §2, §3, §4

T3 sequence (O88867 whole entry): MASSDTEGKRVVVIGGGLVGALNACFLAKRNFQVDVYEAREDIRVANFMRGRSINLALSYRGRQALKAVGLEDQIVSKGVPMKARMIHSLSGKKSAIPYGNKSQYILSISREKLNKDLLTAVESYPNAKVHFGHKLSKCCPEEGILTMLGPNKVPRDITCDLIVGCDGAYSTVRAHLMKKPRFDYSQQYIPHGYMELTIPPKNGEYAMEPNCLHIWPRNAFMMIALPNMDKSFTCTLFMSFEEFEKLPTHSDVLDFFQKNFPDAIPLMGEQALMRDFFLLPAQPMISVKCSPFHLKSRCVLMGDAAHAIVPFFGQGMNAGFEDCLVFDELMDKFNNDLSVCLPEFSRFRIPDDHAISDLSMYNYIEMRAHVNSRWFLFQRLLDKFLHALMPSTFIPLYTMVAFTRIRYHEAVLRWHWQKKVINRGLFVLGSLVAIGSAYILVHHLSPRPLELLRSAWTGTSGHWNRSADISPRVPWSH
T1 sequence (O88867 whole entry): as above
T4 sequence (O15229 whole entry): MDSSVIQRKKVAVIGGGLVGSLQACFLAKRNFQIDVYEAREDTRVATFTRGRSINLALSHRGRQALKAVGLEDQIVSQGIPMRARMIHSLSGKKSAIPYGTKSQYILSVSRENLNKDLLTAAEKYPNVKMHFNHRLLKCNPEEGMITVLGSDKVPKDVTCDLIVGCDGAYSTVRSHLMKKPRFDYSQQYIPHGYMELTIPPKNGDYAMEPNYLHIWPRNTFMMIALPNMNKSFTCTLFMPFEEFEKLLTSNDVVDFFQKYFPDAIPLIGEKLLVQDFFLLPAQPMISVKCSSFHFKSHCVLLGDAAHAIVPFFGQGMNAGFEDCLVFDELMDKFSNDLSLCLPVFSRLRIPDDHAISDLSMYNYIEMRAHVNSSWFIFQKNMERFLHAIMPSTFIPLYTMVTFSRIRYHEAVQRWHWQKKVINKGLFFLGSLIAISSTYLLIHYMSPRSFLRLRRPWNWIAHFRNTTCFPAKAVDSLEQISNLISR
T2 sequence (O15229 whole entry): as above

Compound: Cn1c(=O)[nH]c(=O)c2cc(-c3ncccc3-c3ccc(Cl)c(F)c3)ccc21 [Compound 5]
- Kp at 1 h ([1]; brain/plasma): 0.8
- concentration at 1 h ([1]; brain, read-out: Exposure in brain): 6020 ng/g
- concentration at 1 h ([1]; plasma, read-out: Exposure in plasma): 7560 ng/mL

Compound: COc1ccc(S(=O)(=O)Nc2nc(-c3cccc([N+](=O)[O-])c3)cs2)cc1OC [Ro 61-8048, reference compound]
- inhibition rate, Rat-KMO cellular assay (Figure 1D source data) ([2]; conc 0.03 μM): 12.914% and 13.940%
- inhibition rate, Rat-KMO cellular assay (Figure 1D source data) ([2]; conc 0.1 μM): 6.038% and 6.971%
- inhibition rate, Rat-KMO cellular assay (Figure 1D source data) ([2]; conc 0.3 μM): 6.605% and 2.668%
- inhibition rate, Rat-KMO cellular assay (Figure 1D source data) ([2]; conc 1 μM): 18.248% and 25.802%
- inhibition rate, Rat-KMO cellular assay (Figure 1D source data) ([2]; conc 3 μM): 86.872% and 86.727%
- inhibition rate, Rat-KMO cellular assay (Figure 1D source data) ([2]; conc 10 μM): 97.726% and 97.601%
- inhibition rate, Rat-KMO cellular assay (Figure 1D source data) ([2]; conc 30 μM): 99.995% and 100.184%
- IC50 [3]: 640 nM
- IC50 ([4]; 1200 μM kynurenine, recombinant protein, absorbance, species not given, read-out: IC50 (cell-free assay, this study)): 1400 nM
- inhibition rate, Hs-KMO cell-free assay (Figure 1A source data) ([4]; conc 0.03 μM): 7.785% and 11.650%
- inhibition rate, Hs-KMO cell-free assay (Figure 1A source data) ([4]; conc 0.1 μM): 5.377% and 7.729%
- inhibition rate, Hs-KMO cell-free assay (Figure 1A source data) ([4]; conc 0.3 μM): 12.406% and 14.871%
- inhibition rate, Hs-KMO cell-free assay (Figure 1A source data) ([4]; conc 1 μM): 37.359% and 37.779%
- inhibition rate, Hs-KMO cell-free assay (Figure 1A source data) ([4]; conc 3 μM): 72.366% and 74.382%
- inhibition rate, Hs-KMO cell-free assay (Figure 1A source data) ([4]; conc 10 μM): 94.630%
- inhibition rate, Hs-KMO cell-free assay (Figure 1A source data) ([4]; conc 30 μM): 102.611% and 104.600%
- inhibition rate, Hs-KMO cell-free assay (Figure 1A source data) ([4]; conc 100 μM): 98.579% and 94.322%
- inhibition rate, Rat-KMO cell-free assay (Figure 1B source data) ([5]; conc 0.03 μM): 9.186% and 13.905%
- inhibition rate, Rat-KMO cell-free assay (Figure 1B source data) ([5]; conc 0.1 μM): 21.990% and 21.221%
- inhibition rate, Rat-KMO cell-free assay (Figure 1B source data) ([5]; conc 0.3 μM): 47.520% and 47.997%
- inhibition rate, Rat-KMO cell-free assay (Figure 1B source data) ([5]; conc 1 μM): 71.114% and 72.121%
- inhibition rate, Rat-KMO cell-free assay (Figure 1B source data) ([5]; conc 3 μM): 77.185% and 81.347%
- inhibition rate, Rat-KMO cell-free assay (Figure 1B source data) ([5]; conc 10 μM): 87.099% and 89.538%
- inhibition rate, Rat-KMO cell-free assay (Figure 1B source data) ([5]; conc 30 μM): 98.075% and 95.980%
- inhibition rate, Rat-KMO cell-free assay (Figure 1B source data) ([5]; conc 100 μM): 89.963% and 91.580%
- IC50 [6]: 780 ± 1000 nM
- IC50 ([7]; 100 μM kynurenine, HEK293, LC/MS, species not given, read-out: cellular IC50 (this study)): 1200 nM
- inhibition rate, Hs-KMO cellular assay (Figure 1C source data) ([7]; conc 0.03 μM): 4.914% and 11.092%
- inhibition rate, Hs-KMO cellular assay (Figure 1C source data) ([7]; conc 0.1 μM): 7.800% and 13.947%
- inhibition rate, Hs-KMO cellular assay (Figure 1C source data) ([7]; conc 0.3 μM): 9.982% and 16.379%
- inhibition rate, Hs-KMO cellular assay (Figure 1C source data) ([7]; conc 1 μM): 34.540% and 30.293%
- inhibition rate, Hs-KMO cellular assay (Figure 1C source data) ([7]; conc 3 μM): 100.863% and 99.409%
- inhibition rate, Hs-KMO cellular assay (Figure 1C source data) ([7]; conc 10 μM): 104.869% and 104.896%
- inhibition rate, Hs-KMO cellular assay (Figure 1C source data) ([7]; conc 30 μM): 105.453%
